Results reported in US20220387304A1, “MULTI-LAYERED NANOPARTICLE COATED SUBSTRATES FOR DRUG DELIVERY” (The UAB Research Foundation, priority 2019, published 2022).
Where two headings read alike, the source gives them in different places.

What was measured:
HSNECs [1] = assay: Ciliary beat frequency analysis; type: cell-based, human
Experimental: After applying 100 μL of sterilized PBS as control or PBS containing drug to the apical surface of the cells, the motion images were acquired for 30 minutes. Under each condition, image acquisition was performed using a Basler area scan high-speed monochromatic digital video camera (Basler AG, Ahrensburg, Germany) at a sampling rate of 100 frames per second. The Sisson-Ammons Video Analysis (SAVA) system was used to acquire CBF. Baseline CBF recording was conducted in the previously described manner, and each analysis of CBF was normalized to fold-change over baseline CBF Hz (treatment/baseline).^28

Interleukin-8 (IL-8) = assay: LPS-induced IL-8 secretion from HSNEC (ELISA); type: cell-based, human; details: n=3
Text: (§1) Primary HSNECs were collected with prior approval of the Institutional Review Board at University of Alabama at Birmingham (UAB) (IRB-120305017). Written informed consent from each participant was collected and subjects were screened and negative for a mutation in the cystic fibrosis transmembrane conductance regulator gene. Primary HSNECs were derived from turbinate mucosa from 3 healthy donors undergoing surgery for non-inflammatory conditions and cultured on collagen-coated Costar 6.5-mm-diameter permeable filter supports (Corning, Lowell, Mass.) submerged in established culture media. Differentiation and ciliogenesis occurred in all cultures within 10 to 14 days.^17-26 Matured HSNECs with resistance over 300 Ω/cm^2 and 80% field ciliogenesis by inverted microscopy were subjected to experiments.
After the incubation period, the basal media (600 μL) were collected and measured for IL-8 concentration in each sample according to the manufacture's protocol (R&D systems, Minneapolis, Minn.). The secreted IL-8 concentration in each sample was evaluated by measuring the absorbance at 450 nm using a microplate reader (Synergy HK, BIO-TEK Instruments, Winooski, Vt.). All samples were performed in triplicate.
To evaluate the anti-inflammatory effects of azithromycin on HSNEC, cells were stimulated with 25 μg/ml of P. aeruginosa lipopolysaccharide (LPS) for 2 hours, and treated with incremental azithromycin concentrations (6, 60, and 180 μg/ml) (FIG. 13). After a 24-hour incubation period, the basolateral media was harvested and secreted IL-8 was measured.

HSNECs [2] = assay: HSNEC viability LDH assay; type: cell-based, human
Text: Concentration gradients generated from internal standards (with positive controls) provided by the manufacturer render a theoretical kit detection range in biological samples containing IL-8. […] Louis, Mo.). […] The resulting formazan absorbs maximally at 492 nm and can be measured quantitatively at 490 nm. Total LDH in each sample was expressed as ng/ml.

HSNECs [3] = details: human, 30 μg/ml
Text: as §1

HSNECs [4] = assay: Paracellular permeability of FITC dextran across HSNECs; type: cell-based, human; details: for average paracellular permeability of dextran particles: human
Experimental: The diffusion-barrier of […] is determined by a tight epithelial barrier and tight junction formation and is impacted by a number of chemicals. […] The permeated concentrations of FITC dextran were quantified by a fluorescence microplate reader.

Compound | ciliary beat frequency (HSNECs [1]) | secreted IL-8 (Interleukin-8 (IL-8); ciprofloxacin 2.4 μg/ml alone with LPS exposure) | cellular viability of HSNECs, LDH (HSNECs [2]) | normalized TEER (HSNECs [3]; 3 h) | normalized TEER (HSNECs [3]; 6 h) | paracellular permeability of HSNECs over time (HSNECs [4]) | average paracellular permeability of dextran particles (HSNECs [4]; 3 h) | average paracellular permeability of dextran particles (HSNECs [4]; 6 h) | secreted IL-8 (Interleukin-8 (IL-8); azithromycin 6 μg/ml, 25 μg/ml LPS 2 hours, 24-hour incubation) | secreted IL-8 (Interleukin-8 (IL-8); azithromycin 60 μg/ml, 25 μg/ml LPS 2 hours, 24-hour incubation) | secreted IL-8 (Interleukin-8 (IL-8); azithromycin 180 μg/ml, 25 μg/ml LPS 2 hours, 24-hour incubation)
O=C(O)c1cn(C2CC2)c2cc(N3CCNCC3)c(F)cc2c1=O [ciprofloxacin] | No significant difference in ciliary beat frequency | 6.40 ± 0.26 ng/mL | No detrimental effect on the cellular viability | – | – | – | – | – | – | – | –
CC[C@H]1OC(=O)[C@H](C)[C@@H](O[C@H]2C[C@@](C)(OC)[C@@H](O)[C@H](C)O2)[C@H](C)[C@@H](O[C@@H]2O[C@H](C)C[C@H](N(C)C)[C@H]2O)[C@](C)(O)C[C@@H](C)CN(C)[C@H](C)[C@@H](O)[C@]1(C)O [azithromycin] | No significant difference in ciliary beat frequency | – | No detrimental effect on the cellular viability | 1.14+/−0.06 Ω/cm^2 | 1.02+/−0.37 Ω/cm^2 | No alterations in average paracellular permeability | 0.10+/−0.15% | 3.44+/−0.24% | 4.579 ± 0.399 ng/mL | 4.312 ± 0.057 ng/mL | 4.269 ± 0.258 ng/mL
